Experimental findings from patent US10870647B2, “Imidazopyridine derivative, method for preparing same, and pharmaceutical composition containing same as active ingredient for preventing or treating cancer” (DAEGU-GYEONGBUK MEDICAL INNOVATION FOUNDATION, priority 2016, dated 2020) are described below.

SMILES strings stand for the structures.

Common to all, as to test: Kinase selectivity, scanMAX Kinase assay panel (DiscoverX), % control at 1 uM
Common to all, as to assay type: binding

Assay [1] deals with T1, scanMAX Kinase assay panel (Homo sapiens, UniProt P22607).
T1 construct: purchased DiscoverX
T1 sequence (P22607 23-806): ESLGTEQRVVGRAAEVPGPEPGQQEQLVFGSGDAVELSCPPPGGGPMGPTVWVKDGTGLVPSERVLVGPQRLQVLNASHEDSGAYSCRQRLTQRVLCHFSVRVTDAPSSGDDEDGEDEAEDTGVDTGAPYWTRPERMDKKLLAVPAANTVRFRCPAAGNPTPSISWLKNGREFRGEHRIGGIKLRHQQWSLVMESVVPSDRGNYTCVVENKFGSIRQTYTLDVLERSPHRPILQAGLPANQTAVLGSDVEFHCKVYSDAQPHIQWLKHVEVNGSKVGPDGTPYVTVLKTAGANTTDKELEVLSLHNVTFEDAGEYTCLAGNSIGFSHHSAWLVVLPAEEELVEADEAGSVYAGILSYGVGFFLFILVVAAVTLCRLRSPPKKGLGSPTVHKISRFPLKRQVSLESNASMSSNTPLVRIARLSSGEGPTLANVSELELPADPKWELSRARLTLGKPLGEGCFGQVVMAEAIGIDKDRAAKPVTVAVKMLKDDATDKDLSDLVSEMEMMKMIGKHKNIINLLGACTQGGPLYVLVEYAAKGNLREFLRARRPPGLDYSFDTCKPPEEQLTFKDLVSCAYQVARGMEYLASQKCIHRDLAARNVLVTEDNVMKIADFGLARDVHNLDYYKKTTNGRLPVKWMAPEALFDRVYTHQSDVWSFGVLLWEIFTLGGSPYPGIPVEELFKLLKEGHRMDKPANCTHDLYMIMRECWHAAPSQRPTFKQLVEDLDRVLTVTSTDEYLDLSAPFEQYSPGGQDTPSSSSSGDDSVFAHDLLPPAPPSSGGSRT
The following applies: FGFR3; 1 uM; read-out: Percent Control (%). In outline: (§1)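 Single-point screen at 1 uM compound in DMSO. Lower % control means stronger inhibition, with the cutoff for activity set at <35%.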

For assay [2], the target named is T2, scanMAX Kinase assay panel (Homo sapiens, UniProt Q09013).
T2 construct: purchased DiscoverX
T2 sequence (Q09013 1-629): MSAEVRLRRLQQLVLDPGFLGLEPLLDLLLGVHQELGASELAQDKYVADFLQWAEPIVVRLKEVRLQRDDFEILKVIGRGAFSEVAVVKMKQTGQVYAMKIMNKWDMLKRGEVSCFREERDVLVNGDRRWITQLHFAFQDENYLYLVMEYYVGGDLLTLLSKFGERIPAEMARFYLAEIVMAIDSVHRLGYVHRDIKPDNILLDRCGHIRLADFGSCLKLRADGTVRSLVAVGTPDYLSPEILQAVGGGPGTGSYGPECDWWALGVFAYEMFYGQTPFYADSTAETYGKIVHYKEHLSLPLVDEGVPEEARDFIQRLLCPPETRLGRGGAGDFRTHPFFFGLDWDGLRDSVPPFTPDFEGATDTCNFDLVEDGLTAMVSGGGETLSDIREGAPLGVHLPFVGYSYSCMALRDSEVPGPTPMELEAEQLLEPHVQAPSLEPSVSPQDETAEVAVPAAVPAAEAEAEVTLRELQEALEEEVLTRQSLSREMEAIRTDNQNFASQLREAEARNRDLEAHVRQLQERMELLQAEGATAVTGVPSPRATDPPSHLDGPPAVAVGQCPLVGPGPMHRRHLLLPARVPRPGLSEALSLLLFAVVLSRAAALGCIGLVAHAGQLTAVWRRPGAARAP
The conditions noted are these: DMPK; 1 uM; read-out: Percent Control (%). Summed up: as §1

In assay [3] the target is T3, scanMAX Kinase assay panel (Homo sapiens, UniProt P78356).
T3 construct: purchased DiscoverX
T3 sequence (P78356 1-416): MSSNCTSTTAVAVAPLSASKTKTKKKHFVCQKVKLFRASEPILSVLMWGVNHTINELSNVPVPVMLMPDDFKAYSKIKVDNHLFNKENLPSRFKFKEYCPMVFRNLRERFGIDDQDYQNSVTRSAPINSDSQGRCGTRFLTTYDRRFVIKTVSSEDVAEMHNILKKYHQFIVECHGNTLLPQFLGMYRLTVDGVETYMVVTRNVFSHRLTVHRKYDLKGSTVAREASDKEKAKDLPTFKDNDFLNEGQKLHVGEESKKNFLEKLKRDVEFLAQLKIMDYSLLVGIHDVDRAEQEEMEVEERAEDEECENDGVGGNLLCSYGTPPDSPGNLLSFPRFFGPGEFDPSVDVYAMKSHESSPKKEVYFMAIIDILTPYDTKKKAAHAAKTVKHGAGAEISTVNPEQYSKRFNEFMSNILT
The conditions noted are these: PIP5K2B; 1 uM; read-out: Percent Control (%). Summed up:
as §1

Assay [4] concerns the target T4, scanMAX Kinase assay panel (Homo sapiens, UniProt P51813).
T4 construct: purchased DiscoverX
T4 sequence (P51813 1-675): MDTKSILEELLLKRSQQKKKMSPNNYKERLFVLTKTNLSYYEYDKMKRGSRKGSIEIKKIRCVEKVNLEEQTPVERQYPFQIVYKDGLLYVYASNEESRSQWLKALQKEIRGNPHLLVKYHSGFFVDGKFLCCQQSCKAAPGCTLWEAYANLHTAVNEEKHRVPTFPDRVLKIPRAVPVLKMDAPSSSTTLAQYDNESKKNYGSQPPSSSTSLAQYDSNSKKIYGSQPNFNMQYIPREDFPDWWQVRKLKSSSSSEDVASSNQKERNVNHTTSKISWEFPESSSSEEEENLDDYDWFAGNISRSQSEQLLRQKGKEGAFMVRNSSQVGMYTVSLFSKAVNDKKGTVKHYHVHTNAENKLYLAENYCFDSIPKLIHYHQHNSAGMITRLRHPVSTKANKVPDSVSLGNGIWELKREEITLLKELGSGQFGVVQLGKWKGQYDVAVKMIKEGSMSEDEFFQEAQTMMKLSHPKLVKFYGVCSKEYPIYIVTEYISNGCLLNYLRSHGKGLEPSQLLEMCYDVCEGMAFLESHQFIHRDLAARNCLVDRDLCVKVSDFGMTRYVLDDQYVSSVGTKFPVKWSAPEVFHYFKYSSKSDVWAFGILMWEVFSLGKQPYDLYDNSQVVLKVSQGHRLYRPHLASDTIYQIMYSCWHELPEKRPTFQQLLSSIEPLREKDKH
The following applies: BMX; 1 uM; read-out: Percent Control (%). In outline: as §1

For assay [5], the target named is T5, scanMAX Kinase assay panel (Homo sapiens, UniProt P43403).
T5 construct: purchased DiscoverX
T5 sequence (P43403 1-619): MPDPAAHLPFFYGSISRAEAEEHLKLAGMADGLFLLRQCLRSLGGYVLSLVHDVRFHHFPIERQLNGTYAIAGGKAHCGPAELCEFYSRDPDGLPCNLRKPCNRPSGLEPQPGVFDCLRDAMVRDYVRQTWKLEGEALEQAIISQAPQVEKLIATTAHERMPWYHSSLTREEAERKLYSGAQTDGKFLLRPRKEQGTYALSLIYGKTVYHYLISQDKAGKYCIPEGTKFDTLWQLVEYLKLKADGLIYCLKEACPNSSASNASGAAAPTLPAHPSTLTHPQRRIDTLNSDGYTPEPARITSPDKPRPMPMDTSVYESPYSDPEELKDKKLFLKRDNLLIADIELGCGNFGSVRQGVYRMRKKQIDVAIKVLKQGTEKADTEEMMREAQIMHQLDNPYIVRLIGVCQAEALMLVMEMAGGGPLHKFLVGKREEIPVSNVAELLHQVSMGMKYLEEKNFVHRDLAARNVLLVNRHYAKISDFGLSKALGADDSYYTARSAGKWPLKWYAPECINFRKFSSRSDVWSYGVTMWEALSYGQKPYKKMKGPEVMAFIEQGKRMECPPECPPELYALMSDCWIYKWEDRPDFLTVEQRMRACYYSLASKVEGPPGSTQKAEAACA
The conditions noted are these: ZAP70; 1 uM; read-out: Percent Control (%). In outline: as §1

Assay [6] has as its target T6, scanMAX Kinase assay panel (Homo sapiens, UniProt Q13523).
T6 construct: purchased DiscoverX
The conditions noted are these: PRP4; 1 uM; read-out: Percent Control (%). In outline: as §1

T6 sequence (Q13523 whole entry): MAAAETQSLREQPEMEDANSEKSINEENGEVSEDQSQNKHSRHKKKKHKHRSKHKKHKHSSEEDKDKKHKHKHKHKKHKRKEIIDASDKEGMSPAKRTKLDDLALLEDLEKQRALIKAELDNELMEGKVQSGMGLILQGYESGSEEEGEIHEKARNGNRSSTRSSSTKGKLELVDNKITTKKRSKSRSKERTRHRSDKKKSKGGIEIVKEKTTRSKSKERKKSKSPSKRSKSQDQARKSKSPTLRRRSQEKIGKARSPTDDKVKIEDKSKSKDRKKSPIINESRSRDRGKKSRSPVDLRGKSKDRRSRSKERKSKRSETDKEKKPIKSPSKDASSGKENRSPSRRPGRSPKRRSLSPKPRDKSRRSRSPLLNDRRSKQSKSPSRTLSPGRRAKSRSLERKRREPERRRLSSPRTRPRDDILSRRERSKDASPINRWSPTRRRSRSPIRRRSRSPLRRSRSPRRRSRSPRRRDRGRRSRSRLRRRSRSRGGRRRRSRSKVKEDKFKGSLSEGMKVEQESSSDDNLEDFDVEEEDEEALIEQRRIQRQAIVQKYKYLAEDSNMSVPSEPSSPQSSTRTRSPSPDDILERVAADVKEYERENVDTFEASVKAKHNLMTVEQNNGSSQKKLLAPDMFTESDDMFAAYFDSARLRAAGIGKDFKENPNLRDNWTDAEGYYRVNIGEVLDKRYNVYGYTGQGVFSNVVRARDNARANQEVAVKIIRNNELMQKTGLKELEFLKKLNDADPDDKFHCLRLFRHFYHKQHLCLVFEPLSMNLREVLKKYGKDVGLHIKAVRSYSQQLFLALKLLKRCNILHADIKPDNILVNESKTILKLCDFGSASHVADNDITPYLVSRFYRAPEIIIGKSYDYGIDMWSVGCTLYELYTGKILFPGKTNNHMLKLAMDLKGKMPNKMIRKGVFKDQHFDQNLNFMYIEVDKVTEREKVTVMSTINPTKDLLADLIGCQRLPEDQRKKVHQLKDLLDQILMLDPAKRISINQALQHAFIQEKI

Consider `Cc1ccc(C(=O)Nc2ccc(CN3CCN(C)CC3)c(C(F)(F)F)c2)cc1C#Cc1cnc2c(Nc3cnn(C)c3)cccn12` [Example 1, 4-methyl-3-((8-((1-methyl-1H-pyrazol-4-yl)amino)imidazo[1,2-a]pyridin-3-yl)ethynyl)-N-(4-((4-methylpiperazin-1-yl)methyl)-3-(trifluoromethyl)phenyl)benzamide], for which the remaining binding at 1 µM was determined as 3% in assay [1]; 100% in assay [2]; 82% in assay [3]; 3% in assay [4]; 26% in assay [5]; 89% in assay [6].
Consider `Cc1cn(-c2cc(NC(=O)c3ccc(C)c(C#Cc4cnc5c(Nc6cnn(C)c6)cccn45)c3)cc(C(F)(F)F)c2)cn1` [Example 12, 4-methyl-N-(3-(4-methyl-1H-imidazol-1-yl)-5-(trifluoromethyl)phenyl)-3-((8-((1-methyl-1H-pyrazol-4-yl)amino)imidazo[1,2-a]pyridin-3-yl)ethynyl)benzamide], for which the remaining binding at 1 µM in assay [1] is 33%; in assay [2], 96%; in assay [3], 100%; in assay [4] it was 9%; in assay [5] it was 100%; in assay [6], 95%.
For the molecule `Cc1ccc(NC(=O)C2(C(=O)Nc3ccc(F)cc3)CC2)cc1C#Cc1cnc2c(Nc3cnn(C(C)C)c3)cccn12` [Example 78], the remaining binding at 1 µM is 100% in assay [1]; 92% in assay [2]; 79% in assay [3]; 96% in assay [4]; 96% in assay [5]; 100% in assay [6].
